# From US11040052B2, “Methods and pharmaceutical compositions for modulating autophagy in a subject in need thereof” (INSERM (INSTITUT NATIONAL DE LA SANTE ET DE LA RECHERCHE …, priority 2013, dated 2021)
# Entries after “also recorded” stand apart in the source; their conditions may differ.
# How the values were obtained:
# cellular ATP levels = assay: Cellular ATP levels; type: cell-based; conditions: starved cells
# [1] = system: U2OS cells stably expressing GFP-LC3; assay: Microinjection of AcCoA or CoA into the cytoplasm; type: cell-based, human; conditions: 10 mM injected; for Hydroxycitrate-induced autophagy after microinjection: HC-treated cells
# Description: For microinjection, U2Os cells were cultured overnight on glass coverslips before injection. The setup for the injection itself was as follows: 10 mM CoA or AcCoA were injected in PBS for 0.2 s under a pressure of 150 hPa, using a Microinjector equipment (Eppendorf, Hamburg, Germany). Then cells were culture for 3 h in the presence of 100 nM bafilomycin A1 (BafA1) and fixed for fluorescence microscopy, as described below.
# For microinjection, U2OS cells were cultured overnight on culture dishes before injection. The setup for the injection itself was as follows: 10 mM CoA or AcCoA in PBS were injected for 0.2 s under an injection pressure of 150 hPa and a compensatory pressure of 9 hPa, using a microinjector (Eppendorf, Hamburg, Germany). Before injection, cells were cultured for 2 h in the presence of 100 nM bafilomycin A1 (BafA1) in control medium and in presence of 20 mm Hydroxycitrate. One hour after injection, cells were fixed with 4% PFA and analyzed by fluorescent and automated videomicroscopy.
# [2] = system: MPA/DMBA induced mammary tumors; assay: MPA/DMBA induced mammary tumor; type: in vivo, mice; conditions: mouse, in vivo
# Description: Six-week-old female Balb/c mice underwent surgical implantation of slow-release MPA (Medroxyprogesterone Acetate) pellets (50 mg, 90-day release; Innovative Research of America) subcutaneously on the right flank. 200 uL of 5 mg/mL DMBA (Dimethylbenzantracene)
# (Sigma Aldrich) dissolved in Corn Oil was administered by oral gavage six times during 8 weeks. Tumor formation was monitored by palpation. When tumors became palpable, mice were assigned to following groups of treatment: PBS, HCA, MTX, MTX plus HCA and the MTX plus HCA upon CD4/CD8 lymphocytes depletion. Combinatorial groups were treated as previously described, whereas for CD4/CD8 depletion, mice were intraperitoneally administrated with 500 μg of anti CD4 and CD8 antibodies the day before the onset of the treatment.
# [3] = system: intracellular amino acid levels; assay: Intracellular amino acid levels by mass spectrometry; type: cell-based; conditions: starved cells
# Description: Profiling of intracellular metabolites was performed on a RRLC 1260 system (Agilent Technologies) coupled to a QTOF 6520 (Agilent) equipped with an electrospray source operating in positive ion and full scan mode from 100 to 1000 Da. The gas temperature was set at 350° C. with a gas flow of 10 L·min^1. The capillary voltage was set at 4.0 kV, and the fragmentor at 150 V. Two reference masses were used to maintain the mass accuracy during analysis: 121.050873 (C5H4N4) and 922.009798 (C18H18O6N3P3F24). Five μL of sample were injected on a 150 mm×2.1 mm 3.5 μm SB Aq column (Agilent) with a pre-column 30 mm×2.1 mm 3.5 μm Eclipse plus (Agilent). The gradient mobile phase consisted of water with 10 mmol/L of ammonium acetate and 0.01% of acetic acid (A) and acetonitrile (B). Initial composition of mobile phase was 2% of B, followed by an increase to 95% of B in 10 min. The flow rate was set to 0.3 mL·min^−1.
# [4] = system: autophagy in mice tissues; assay: Autophagy induction in tissues of fed mice (LC3 lipidation, p62, GFP-LC3 dots); type: in vivo
# Description: (§1) C57BL/6 mice (Charles River Laboratory, Lentilly, France) were bred and maintained according to both the FELASA and the Animal Experimental Ethics Committee Guidelines (Val de Marne, France). Mice were housed in a temperature-controlled environment with 12 h light/dark cycles and received food and water ad libitum. For HC-related experiments, mice were injected intraperitoneally with a single 100 mg/kg dose and 6 h later were sacrificed and tissues were immediately frozen in liquid nitrogen. For DCA- and DMKG-related experiments, mice were subjected to 24 h starvation and injected intraperitoneally each 8 h with a 100 mg/kg of either DCA or DMKG solution prepared in PBS. After 24 h of starvation, mice were sacrificed and tissues were immediately frozen in liquid nitrogen after extraction and homogenized two cycles for 20 s at 5,500 rpm using Precellys 24 tissue homogenator (Bertin Technologies, Montigny-le-Bretonneux, France) in a 20 mM Tris buffer (pH 7.4) containing 150 mM NaCl, 1% Triton X-100, 10 mM EDTA and Complete® protease inhibitor cocktail (Roche Applied Science). Tissue extracts were then centrifuged at 12,000 g at 4° C. and supernatants were collected. Protein concentration in the supernatants was evaluated by the bicinchoninic acid technique (BCA protein assay kit, Pierce Biotechnology, Rockford, Ill.). For hydroxycitrate-related weight-loss experiments, autophagy-deficient Atg4b^−/− mice were used. Atg4b^−/− mice have been previously described (Mariño et al., 2010). For HC-, spermidine-, and resveratrol-related experiments (tumour growth) mice were intraperitoneally injected with respectively 100 mg/kg, 50 mg/kg and 100 mg/kg doses at day 8 and day 9. At day 9, mice were intraperitoneally injected with 2 mg/kg single dose of Mitoxanthrone. For starvation related experiment (tumour growth) mice were treated as previously described (Fabrizio et. al., 2010).
# To avoid post-mortem autophagy induction, dead mice were immediately perfused with 4% paraformaldehyde (w:v in PBS, pH 7.4). Tissues were then harvested and further fixed with the same solution for at least 4 h, followed by treatment with 15% sucrose (w:v in PBS) for 4 h and with 30% sucrose (w:v in PBS) overnight. Tissue samples were embedded in Tissue-Tek OCT compound (Sakura Finetechnical Co. Ltd., Tokyo, Japan) and stored at −70° C. Five μm-thick tissue sections were prepared with a CM3050 S cryostat (Leica Microsystems GmbH, Wetzlar, Germany), air-dried for 1 h, washed in PBS for 5 min, dried at RT for 30 min, and mounted with VECTASHIELD anti-fading medium. In each organ, the number of GFP-LC3 dots was counted in five independent visual fields from at least five mice using a TCS SP2 confocal fluorescence microscope (Leica Microsystems GmbH).
# Six weeks old female C57BL/6, Balb/c and nude athymic mice (Harlan Laboratory, Gannat, France) were bred and maintained according to both the FELASA and the Animal Experimental Inserm Ethics Committee Guidelines (project: 2012-69). Mice were housed in a temperature-controlled environment with 12 h light/dark cycles and received food and water ad libitum. For tumor growth experiments, procedures adopted are described as follows: 3×10^5 tumor cells were subcutaneously inoculated; when tumors became palpable (day −1 before chemotherapy), mice were first intraperitoneally injected with 100 mg/kg Potassium Hydroxycitrate, 10 mg/kg Acetylsalicylic Acid, 30 mg/kg SB204990, 30 mg/kg c646, 5 mg/kg Rapamycin, 25 mg/kg Resveratrol, 50 mg/kg Spermidine. At day 0, mice were intraperitoneally injected with the abovementioned compounds and with 5.17 mg/Kg Mitoxanthrone or 5 mg/kg Oxaliplatin. Tumor size was measured every two days. For starvation experiments, mice underwent 48 hour fasting followed by intreperitoneal injection of chemotherapeutics. […]
# MCA205 tumor = assay: Growth of transplantable tumors with chemotherapy; type: in vivo, mice; conditions: for tumor growth, combined with MTX: immunocompetent wild type mice, agent given before and with mitoxanthrone; for tumor growth, combined with MTX, immunodeficient mice: nu/nu (nude athymic) mice
# Description: as §1
# Six weeks old female C57BL/6, Balb/c and nude athymic mice (Harlan Laboratory, Gannat, France) were bred and maintained according to both the FELASA and the Animal Experimental Inserm Ethics Committee Guidelines (project: 2012-69). Mice were housed in a temperature-controlled environment with 12 h light/dark cycles and received food and water ad libitum. For tumor growth experiments, procedures adopted are described as follows: 3×10^5 tumor cells were subcutaneously inoculated; when tumors became palpable (day −1 before chemotherapy), mice were first intraperitoneally injected with 100 mg/kg Potassium Hydroxycitrate, 10 mg/kg Acetylsalicylic Acid, 30 mg/kg SB204990, 30 mg/kg c646, 5 mg/kg Rapamycin, 25 mg/kg Resveratrol, 50 mg/kg Spermidine. At day 0, mice were intraperitoneally injected with the abovementioned compounds and with 5.17 mg/Kg Mitoxanthrone or 5 mg/kg Oxaliplatin. Tumor size was measured every two days. For starvation experiments, mice underwent 48 hour fasting followed by intreperitoneal injection of chemotherapeutics. For autophagy induction study, 6 hours after CRMs administration, mice were sacrificed and tissues were snap-frozen in liquid nitrogen after extraction and homogenized two cycles for 20 s at 5,500 rpm using Precellys 24 tissue homogenator (Bertin Technologies, Montigny-le-Bretonneux, France) in a 20 mM Tris buffer (pH 7.4) containing 150 mM NaCl, 1% Triton X-100, 10 mM EDTA and Complete® protease inhibitor cocktail (Roche Applied Science, Penzberg, Germany). Tissue extracts were then centrifuged at 12,000 g at 4° C. and supernatants were collected. Protein concentration in the supernatants was evaluated by the bicinchoninic acid technique (BCA protein assay kit, Pierce Biotechnology, Rockford, US.
# [5] = chronic treatment; cited from earlier work
smiles,measurement,setting,value
"Cn1cnc(N)c2ncnc1-2 [3-MA, 3-methyladenine]",cellular ATP levels in starved cells,cellular ATP levels,similarly reduced ATP content
"CC(=O)SCCNC(=O)CCNC(=O)[C@H](O)C(C)(C)COP(=O)(O)OP(=O)(O)OC[C@H]1O[C@@H](n2cnc3c(N)ncnc32)[C@H](O)[C@@H]1OP(=O)(O)O [AcCoA, acetyl-coenzyme A]",Hydroxycitrate-induced autophagy after microinjection,[1],suppressed by microinjection of AcCoA
same,Hydroxycitrate-induced autophagy after microinjection,[1]; listed as Acetyl CoA,inhibits Hydroxycitrate-induced autophagy
same,cytoplasmic protein acetylation after microinjection,[1]; starved cells,increased the levels of cytoplasmic protein acetylation
same,starvation-induced autophagic flux after microinjection,[1]; starved cells,reduced starvation-induced autophagic flux
"O=C1c2c(O)ccc(O)c2C(=O)c2c(NCCNCCO)ccc(NCCNCCO)c21 [MTX, mitoxanthrone]","mammary tumor growth, monotherapy",[2],had little effect
NC(=O)CC[C@H](N)C(=O)O [glutamine],intracellular amino acid levels,[3],did increase cellular glutamate levels
Oc1ccc(C=Cc2cc(O)cc(O)c2)cc1 [resveratrol],"autophagy in vivo (LC3 lipidation, p62, GFP-LC3)",[4],elicits autophagy in mice muscle after 6 hours
same,"tumor growth, combined with MTX",MCA205 tumor,capable to recapitulate the positive combinatorial effect of starvation; also recorded: HC could be replaced
same,"tumor growth, combined with MTX",MCA205 tumor; listed as Resveratrol,mimics the effects of 48 h fasting in delaying subcutaneous MCA205 tumor growth
same,"tumor growth, combined with MTX, immunodeficient mice",MCA205 tumor,failed
NCCCCNCCCN [spermidine],health and life spans of mice,[5],extends the health and life spans of mice
same,"autophagy in vivo (LC3 lipidation, p62, GFP-LC3)",[4],elicits autophagy in mice muscle after 6 hours
same,"tumor growth, combined with MTX",MCA205 tumor,capable to recapitulate the positive combinatorial effect of starvation; also recorded: HC could be replaced
same,"tumor growth, combined with MTX",MCA205 tumor; listed as Spermidine,mimics the effects of 48 h fasting in delaying subcutaneous MCA205 tumor growth; also recorded: can enhance chemotherapy efficacy
same,"tumor growth, combined with MTX, immunodeficient mice",MCA205 tumor,failed
